{"source": "patent US4460605A", "about": "“2-[2'-Hydroxy-3'-(1,1-dimethylpropylamino)-propoxy ]-β-phenylpropiophenone, its physiologically acceptable acid addition salts, and pharmaceutical compositions” (Helopharm W. Petrik & Co., priority 1981, dated 1984)", "key": {"model arrhythmias [1]": {"tested_on": "model arrhythmias", "experiment": "Tests with animals having model arrhythmias (known compounds)", "format": "in vivo", "settings": "average (1-3 mg/kg) intravenous doses"}, "[2]": {"tested_on": "CHCl3-adrenalin-model arrhythmia", "experiment": "animal or person", "format": "in vivo, dog", "method": "The antiarrhythmic effect of the compound of formula I was tested in dogs according to the method of Hapke and Prigge, Arzneim.-Forsch. (Drug Res.), loc. cit. A model arrhythmia which was essentially characterized by ventricular extrasystoles at absolute arrhythmia was produced by infusion of chloroform and adrenalin (epinephrine). At the onset of these rhythm disorders the inventive compound was injected intravenously as aqueous solution of the hydrochloride.\n. […] (Drug Res.), loc. cit."}, "circulation parameters": {"tested_on": "circulation parameters", "experiment": "Circulation parameters in dogs (method of Hapke and Prigge)", "settings": "for Diastolic blood pressure (A. femoralis) / Heart beat rate change / Systolic blood pressure (A. femoralis) / Coronary flow volume / Left ventricular peak pressure / Maximum rate of pressure rise (dp/dt) / Peripheral blood flow volume (A. femoralis): dog", "source_text": "For the test method see H. J. Hapke and E. Prigge, Arzneim.-Forsch."}, "[3]": {"tested_on": "rhythm disorders produced by occlusion of a branch of the coronary vessels", "experiment": "Antiarrhythmic effect after oral administration, rhythm disorders by occlusion of a branch of the coronary vessels in dogs", "format": "in vivo, dog", "settings": "10 mg/kg intragastric", "method": "Again in dogs, the excellent antiarrhythmic effect could be observed after oral administration too. Rhythm disorders were produced by occlusion of a branch of the coronary vessels. The inventive compound was administered intragastrically in the form of the hydrochloride the next day."}, "[4]": {"experiment": "LD50 acute toxicity in dog", "settings": "in vivo, iv; dog i.v."}, "model arrhythmias [5]": {"tested_on": "model arrhythmias", "settings": "cited from earlier work; for dose at which antiarrhythmic effect appeared: dogs, cats and rabbits"}, "heart rate disorders": {"tested_on": "heart rate disorders", "settings": "human medicine; cited from earlier work"}}, "note": "Structures can show the parent of a compound that is named as a salt. Where two headings read alike, the source gives them in different places."}
{"smiles": "CCC(C)NCC(O)COc1ccccc1C(=O)CCc1ccccc1", "note": "(stereo not drawn) [1-methylpropylamino]", "values": [{"measurement": "antiarrhythmic effect", "setting": "model arrhythmias [1]", "value": "practically no antiarrhythmic effect"}]}
{"smiles": "CCC(C)(C)NCC(O)COc1ccccc1C(=O)CCc1ccccc1", "note": "(stereo not drawn) [diprafenone, 2-[2'-hydroxy-3'-(1,1-dimethylpropylamino)-propoxy]-β-phenylpropiophenone]", "values": [{"measurement": "minimal effective dose", "setting": "[2]; Canis lupus familiaris, intravenous, model arrhythmias, read-out: dose showing an antiarrhythmic effect", "value": 0.05, "unit": "mg/kg"}, {"measurement": "increase of therapeutic quotient as compared to propafenone", "setting": "[2]; dog, in vivo", "value": "10-20 times"}]}
{"smiles": "CCC(C)(C)NCC(O)COc1ccccc1C(=O)CCc1ccccc1", "note": "(stereo not drawn) [diprafenone-HCl, 2-[2'-hydroxy-3'-(1,1-dimethylpropylamino)-propoxy]-β-phenylpropiophenone-hydrochloride]", "values": [{"measurement": "effect on peripheral and coronary circulation", "setting": "circulation parameters; comparable doses", "value": "does not have an effect on the peripheral and coronary circulation"}, {"measurement": "Diastolic blood pressure (A. femoralis)", "setting": "circulation parameters; 0.5 mg/kg i.v.", "value": -16, "unit": "mm Hg"}, {"measurement": "Heart beat rate change", "setting": "circulation parameters; 0.5 mg/kg i.v.", "value": -8, "unit": "min⁻¹"}, {"measurement": "Systolic blood pressure (A. femoralis)", "setting": "circulation parameters; 0.5 mg/kg i.v.", "value": -13, "unit": "mm Hg"}, {"measurement": "Diastolic blood pressure (A. femoralis)", "setting": "circulation parameters; 1.0 mg/kg i.v.", "value": -24, "unit": "mm Hg"}, {"measurement": "Heart beat rate change", "setting": "circulation parameters; 1.0 mg/kg i.v.", "value": -22, "unit": "min⁻¹"}, {"measurement": "Systolic blood pressure (A. femoralis)", "setting": "circulation parameters; 1.0 mg/kg i.v.", "value": -17, "unit": "mm Hg"}, {"measurement": "Coronary flow volume", "setting": "circulation parameters; 3.0 mg/kg i.v.", "value": "+56%"}, {"measurement": "Diastolic blood pressure (A. femoralis)", "setting": "circulation parameters; 3.0 mg/kg i.v.", "value": -39, "unit": "mm Hg"}, {"measurement": "Heart beat rate change", "setting": "circulation parameters; 3.0 mg/kg i.v.", "value": -24, "unit": "min⁻¹"}, {"measurement": "Left ventricular peak pressure", "setting": "circulation parameters; 3.0 mg/kg i.v.", "value": -46, "unit": "mm Hg"}, {"measurement": "Maximum rate of pressure rise (dp/dt)", "setting": "circulation parameters; 3.0 mg/kg i.v.", "value": -30, "unit": "%"}, {"measurement": "Systolic blood pressure (A. femoralis)", "setting": "circulation parameters; 3.0 mg/kg i.v.", "value": -45, "unit": "mm Hg"}, {"measurement": "heart beat rate", "setting": "circulation parameters; doses of 0.5 mg/kg i.v., contrary to propafenone", "value": "reduction of the heart beat rate"}, {"measurement": "time to full antiarrhythmic effect", "setting": "[2]; dogs, 0.05 mg/kg i.v.", "value": "≤ 45", "unit": "s"}, {"measurement": "antiarrhythmic effect (sinus rhythm in ECG became normal)", "setting": "[2]; dogs, 0.05 mg/kg i.v., all dogs treated", "value": "fully effective"}, {"measurement": "extrasystoles", "setting": "[3]; 30 minutes after application", "value": "no extrasystoles could be observed"}, {"measurement": "extrasystoles", "setting": "[3]; for 10 minutes after application", "value": "observed unchanged"}, {"measurement": "ECG", "setting": "[3]; for the 24 hours observed", "value": "remained normal"}, {"measurement": "LD50", "setting": "[4]", "value": 10, "unit": "mg/kg"}]}
{"smiles": "CCCCNCC(O)COc1ccccc1C(=O)CCc1ccccc1", "note": "(stereo not drawn) [n-butylamino]", "values": [{"measurement": "antiarrhythmic effect", "setting": "model arrhythmias [1]", "value": "practically no antiarrhythmic effect"}]}
{"smiles": "CCCNCC(O)COc1ccccc1C(=O)CCc1ccccc1", "note": "(stereo not drawn) [propafenone-HCl]", "values": [{"measurement": "Coronary flow volume", "setting": "circulation parameters; 1.0 mg/kg i.v.", "value": "+14%"}, {"measurement": "Left ventricular peak pressure", "setting": "circulation parameters; 1.0 mg/kg i.v.", "value": -5, "unit": "mm Hg"}, {"measurement": "Peripheral blood flow volume (A. femoralis)", "setting": "circulation parameters; 1.0 mg/kg i.v.", "value": "+10%"}, {"measurement": "Coronary flow volume", "setting": "circulation parameters; 3.0 mg/kg i.v.", "value": "+30%"}, {"measurement": "Diastolic blood pressure (A. femoralis)", "setting": "circulation parameters; 3.0 mg/kg i.v.", "value": -40, "unit": "mm Hg"}, {"measurement": "Left ventricular peak pressure", "setting": "circulation parameters; 3.0 mg/kg i.v.", "value": -25, "unit": "mm Hg"}, {"measurement": "Maximum rate of pressure rise (dp/dt)", "setting": "circulation parameters; 3.0 mg/kg i.v.", "value": -29, "unit": "%"}, {"measurement": "Peripheral blood flow volume (A. femoralis)", "setting": "circulation parameters; 3.0 mg/kg i.v.", "value": "+36%"}, {"measurement": "Systolic blood pressure (A. femoralis)", "setting": "circulation parameters; 3.0 mg/kg i.v.", "value": -30, "unit": "mm Hg"}, {"measurement": "Coronary flow volume", "setting": "circulation parameters; 5.0 mg/kg i.v.", "value": "+43%"}, {"measurement": "Left ventricular peak pressure", "setting": "circulation parameters; 5.0 mg/kg i.v.", "value": -42, "unit": "mm Hg"}, {"measurement": "Maximum rate of pressure rise (dp/dt)", "setting": "circulation parameters; 5.0 mg/kg i.v.", "value": -47, "unit": "%"}, {"measurement": "Coronary flow volume", "setting": "circulation parameters; 10.0 mg/kg i.v.", "value": "+67%"}, {"measurement": "Diastolic blood pressure (A. femoralis)", "setting": "circulation parameters; 10.0 mg/kg i.v.", "value": -60, "unit": "mm Hg"}, {"measurement": "Left ventricular peak pressure", "setting": "circulation parameters; 10.0 mg/kg i.v.", "value": -70, "unit": "mm Hg"}, {"measurement": "Maximum rate of pressure rise (dp/dt)", "setting": "circulation parameters; 10.0 mg/kg i.v.", "value": -62, "unit": "%"}, {"measurement": "Systolic blood pressure (A. femoralis)", "setting": "circulation parameters; 10.0 mg/kg i.v.", "value": -65, "unit": "mm Hg"}]}
{"smiles": "CCCNCC(O)COc1ccccc1C(=O)CCc1ccccc1", "note": "(stereo not drawn) [propafenone]", "values": [{"measurement": "hemodynamic effect", "setting": "model arrhythmias [5]; average (1-3 mg/kg) and higher (5 mg/kg) intravenous doses", "value": "hypotensive, negative inotropic effect and dilates the coronary arteries"}, {"measurement": "dose at which antiarrhythmic effect appeared", "setting": "model arrhythmias [5]; intravenous", "value": 1, "unit": "mg/kg"}, {"measurement": "dose at which antiarrhythmic effect appeared", "setting": "model arrhythmias [5]; oral", "value": "2 to 10", "unit": "mg/kg"}, {"measurement": "heart rate", "setting": "model arrhythmias [5]; doses producing an antiarrhythmic effect", "value": "not substantially affected"}, {"measurement": "antiarrhythmic effect", "setting": "model arrhythmias [5]; only one of the compounds of German Pat. No. 2 001 431", "value": "shows an antiarrhythmic effect"}, {"measurement": "effect in therapy of heart rate disorders", "setting": "heart rate disorders", "value": "antiarrhythmic with local anaesthetic, quinidine-like and also β-receptor blocking effect"}]}
{"smiles": "CC(C)(C)NCC(O)COc1ccccc1C(=O)CCc1ccccc1", "note": "(stereo not drawn) [tert-butylamino]", "values": [{"measurement": "antiarrhythmic effect", "setting": "model arrhythmias [1]", "value": "practically no antiarrhythmic effect"}]}
